Biological target: Chymotrypsinogen A (Bos taurus) (UniProt P00766)
Assay: In vitro inhibitory activity against bovin chymotrypsin

IC50, > 10 µM:
COC(=O)c1ccc(NS(=O)(=O)c2sc3ccc(Cl)cc3c2C)c(S(C)(=O)=O)c1 [4-(5-Chloro-3-methyl-benzo[b]thiophene-2-sulfonylamino)-3-methanesulfonyl-benzoic acid methyl ester]
COC(=O)c1ccc(NS(=O)(=O)c2sc3ccc(F)cc3c2C)c(S(C)(=O)=O)c1 [4-(5-Fluoro-3-methyl-benzo[b]thiophene-2-sulfonylamino)-3-methanesulfonyl-benzoic acid methyl ester]
CC(=O)c1ccc(NS(=O)(=O)c2sc3ccc(F)cc3c2C)c(S(C)(=O)=O)c1 [5-Fluoro-3-methyl-benzo[b]thiophene-2-sulfonic acid (4-acetyl-2-methanesulfonyl-phenyl)-amide]
